{"source": "ChEMBL document CHEMBL1201862", "about": "“PubChem BioAssay data set” (2004)", "test_in_all_cases": "growth of human tumour cells (NCI), 48 h", "key": {"DU-145": {"test_system": "DU-145"}, "RXF 393": {"test_system": "RXF 393"}, "HCT-116": {"test_system": "HCT-116"}, "BT-549": {"test_system": "BT-549"}, "SNB-19": {"test_system": "SNB-19"}, "ACHN": {"test_system": "ACHN"}, "IGROV-1": {"test_system": "IGROV-1"}, "COLO 205": {"test_system": "COLO 205"}, "NCI-H226": {"test_system": "NCI-H226"}, "UACC-62": {"test_system": "UACC-62"}, "HCT-15": {"test_system": "HCT-15"}, "Hs-578T": {"test_system": "Hs-578T"}, "NCI-H23": {"test_system": "NCI-H23"}, "SR": {"test_system": "SR"}, "CAKI-1": {"test_system": "CAKI-1"}, "SN12C": {"test_system": "SN12C"}, "UO-31": {"test_system": "UO-31"}, "HT-29": {"test_system": "HT-29"}, "Malme-3M": {"test_system": "Malme-3M"}, "OVCAR-8": {"test_system": "OVCAR-8"}, "CCRF-CEM": {"test_system": "CCRF-CEM"}, "SF-295": {"test_system": "SF-295"}, "PC-3": {"test_system": "PC-3"}, "A549": {"test_system": "A549"}, "NCI-H460": {"test_system": "NCI-H460"}, "OVCAR-3": {"test_system": "OVCAR-3"}, "RPMI-8226": {"test_system": "RPMI-8226"}, "HL-60": {"test_system": "HL-60"}, "SK-MEL-5": {"test_system": "SK-MEL-5"}, "NCI/ADR-RES": {"test_system": "NCI/ADR-RES"}, "SW-620": {"test_system": "SW-620"}, "SK-MEL-28": {"test_system": "SK-MEL-28"}, "UACC-257": {"test_system": "UACC-257"}, "T47D": {"test_system": "T47D"}, "LOX IMVI": {"test_system": "LOX IMVI"}, "K562": {"test_system": "K562"}, "MDA-N": {"test_system": "MDA-N"}, "HCC 2998": {"test_system": "HCC 2998"}, "MOLT-4": {"test_system": "MOLT-4"}, "U-251": {"test_system": "U-251"}, "MCF7": {"test_system": "MCF7"}, "SK-MEL-2": {"test_system": "SK-MEL-2"}, "A498": {"test_system": "A498"}, "SK-OV-3": {"test_system": "SK-OV-3"}, "SNB-75": {"test_system": "SNB-75"}, "HOP-62": {"test_system": "HOP-62"}, "MDA-MB-231": {"test_system": "MDA-MB-231"}, "SF-268": {"test_system": "SF-268"}, "KM12": {"test_system": "KM12"}, "TK-10": {"test_system": "TK-10"}, "EKVX": {"test_system": "EKVX"}, "OVCAR-4": {"test_system": "OVCAR-4"}, "HOP-92": {"test_system": "HOP-92"}, "MDA-MB-435": {"test_system": "MDA-MB-435"}, "786-0": {"test_system": "786-0"}, "SF-539": {"test_system": "SF-539"}, "OVCAR-5": {"test_system": "OVCAR-5"}, "NCI-H522": {"test_system": "NCI-H522"}}, "note": "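Cells were grown in 96-well plates and exposed to each compound for 48 hours at five concentrations; endpoints were interpolated linearly between bracketing concentrations, or set to the highest concentration if not reached. At the GI50, growth is halved.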 Calls of active or inactive are those of the source. No stated cut-off is given here; in the data, active = GI50 up to about 1.1 µM and inactive = higher."}
{"smiles": "CC1(C)CCCCCC(C)(CCCCCCCCCCCO)C1=O", "note": "(stereo not drawn)", "values": [{"measurement": "GI50", "setting": "DU-145", "result": "17.7 µM (inactive)"}, {"measurement": "GI50", "setting": "RXF 393", "result": "16.9 µM (inactive)"}, {"measurement": "GI50", "setting": "HCT-116", "result": "15.3 µM (inactive)"}, {"measurement": "GI50", "setting": "BT-549", "result": "18.9 µM (inactive)"}, {"measurement": "GI50", "setting": "SNB-19", "result": "17.2 µM (inactive)"}, {"measurement": "GI50", "setting": "ACHN", "result": "12.8 µM (inactive)"}, {"measurement": "GI50", "setting": "IGROV-1", "result": "18.2 µM (inactive)"}, {"measurement": "GI50", "setting": "COLO 205", "result": "17.1 µM (inactive)"}, {"measurement": "GI50", "setting": "NCI-H226", "result": "17.1 µM (inactive)"}, {"measurement": "GI50", "setting": "UACC-62", "result": "15.5 µM (inactive)"}, {"measurement": "GI50", "setting": "HCT-15", "result": 16.1, "unit": "µM"}, {"measurement": "GI50", "setting": "Hs-578T", "result": "16.3 µM (inactive)"}, {"measurement": "GI50", "setting": "NCI-H23", "result": "16.6 µM (inactive)"}, {"measurement": "GI50", "setting": "SR", "result": "1.41 µM (inactive)"}, {"measurement": "GI50", "setting": "CAKI-1", "result": "15.1 µM (inactive)"}, {"measurement": "GI50", "setting": "SN12C", "result": "16.1 µM (inactive)"}, {"measurement": "GI50", "setting": "UO-31", "result": "17 µM (inactive)"}, {"measurement": "GI50", "setting": "HT-29", "result": "11.9 µM (inactive)"}, {"measurement": "GI50", "setting": "Malme-3M", "result": "16 µM (inactive)"}, {"measurement": "GI50", "setting": "OVCAR-8", "result": "16.9 µM (inactive)"}, {"measurement": "GI50", "setting": "CCRF-CEM", "result": "13 µM (inactive)"}, {"measurement": "GI50", "setting": "SF-295", "result": "15.7 µM (inactive)"}, {"measurement": "GI50", "setting": "PC-3", "result": "16.1 µM (inactive)"}, {"measurement": "GI50", "setting": "A549", "result": "15.1 µM (inactive)"}, {"measurement": "GI50", "setting": "NCI-H460", "result": "17.1 µM (inactive)"}, {"measurement": "GI50", "setting": "OVCAR-3", "result": "16 µM (inactive)"}, {"measurement": "GI50", "setting": "RPMI-8226", "result": "20.9 µM (inactive)"}, {"measurement": "GI50", "setting": "HL-60", "result": "14.7 µM (inactive)"}, {"measurement": "GI50", "setting": "SK-MEL-5", "result": "16.7 µM (inactive)"}, {"measurement": "GI50", "setting": "NCI/ADR-RES", "result": "14 µM (inactive)"}, {"measurement": "GI50", "setting": "SW-620", "result": "18.4 µM (inactive)"}, {"measurement": "GI50", "setting": "SK-MEL-28", "result": "17.9 µM (inactive)"}, {"measurement": "GI50", "setting": "UACC-257", "result": "14 µM (inactive)"}, {"measurement": "GI50", "setting": "T47D", "result": "14.6 µM (inactive)"}, {"measurement": "GI50", "setting": "LOX IMVI", "result": "15.4 µM (inactive)"}, {"measurement": "GI50", "setting": "K562", "result": "15.3 µM (inactive)"}, {"measurement": "GI50", "setting": "MDA-N", "result": "17.9 µM (inactive)"}, {"measurement": "GI50", "setting": "HCC 2998", "result": "24.3 µM (inactive)"}, {"measurement": "GI50", "setting": "MOLT-4", "result": "19.5 µM (inactive)"}, {"measurement": "GI50", "setting": "U-251", "result": "17 µM (inactive)"}, {"measurement": "GI50", "setting": "MCF7", "result": "16.1 µM (inactive)"}, {"measurement": "GI50", "setting": "SK-MEL-2", "result": "16.2 µM (inactive)"}, {"measurement": "GI50", "setting": "A498", "result": "17.9 µM (inactive)"}, {"measurement": "GI50", "setting": "SK-OV-3", "result": "17.6 µM (inactive)"}, {"measurement": "GI50", "setting": "SNB-75", "result": "16.3 µM (inactive)"}, {"measurement": "GI50", "setting": "HOP-62", "result": "17.7 µM (inactive)"}, {"measurement": "GI50", "setting": "MDA-MB-231", "result": "16.3 µM (inactive)"}, {"measurement": "GI50", "setting": "SF-268", "result": "16.1 µM (inactive)"}, {"measurement": "GI50", "setting": "KM12", "result": "18.1 µM (inactive)"}, {"measurement": "GI50", "setting": "TK-10", "result": "12.1 µM (inactive)"}, {"measurement": "GI50", "setting": "EKVX", "result": "17.6 µM (inactive)"}, {"measurement": "GI50", "setting": "OVCAR-4", "result": "15.5 µM (inactive)"}, {"measurement": "GI50", "setting": "HOP-92", "result": "17.3 µM (inactive)"}, {"measurement": "GI50", "setting": "MDA-MB-435", "result": "16.6 µM (inactive)"}, {"measurement": "GI50", "setting": "786-0", "result": "16.2 µM (inactive)"}, {"measurement": "GI50", "setting": "SF-539", "result": "16.7 µM (inactive)"}, {"measurement": "GI50", "setting": "OVCAR-5", "result": "17.2 µM (inactive)"}, {"measurement": "GI50", "setting": "NCI-H522", "result": "17.3 µM (inactive)"}]}
